Measured values published in patent publication US9504674B2, “TrkB agonists and methods of use” (EMORY UNIVERSITY, priority 2010, dated 2016).

Columns and labels:
[1] = Forced swim test in C57BL/6J mice; format: in vivo, mouse; conditions: 5 mg/kg oral for 21 days, male C57BL/6J mice, immobility in last 4 min of 6 min
Method: (§1) Male C57BL/6J mice (8 mice/group) were orally administrated by gavage with 5 mg/kg 4′-DMA-7,8-DHF and 7,8-DHF and vehicle solvent saline for 21 days and subjected to a forced swim test (6 min, immobility recorded in the last 4 min). Data are presented as mean±SEM.
as §1, with “Forced swim test with imidazole flavonoid and compound i. Male” for “Male”, “days,” for “days”
Adult male mice (2-3 months old) were randomly submitted to a forced swim test without a pre-swim. Saline, 4′-DMA-7,8-DHF and 7,8-DHF (5 mg/kg) were orally injected for 21 days. The mice were allowed to adapt to the test room for 2 days. The mice were placed in a clear glass cylinder with a diameter of 16 cm, half-filled with clear water at 24° C.
(§2) Accumulating evidence supports that BDNF plays a role in mediating therapeutic effects of antidepressants. Infusion of exogenous BDNF into hippocampus or brain stem has anti-depressant-like behavioral effect. A forced swim test is broadly used for screening of potential antidepressant drugs and is widely used to measure antidepressant activity. To explore whether 4′-DMA-7,8-DHF and 7,8-DHF have any antidepressant effect like BDNF, a forced swim test was conducted after chronic treatment of the mice for 21 days via oral injection.
(§3) BDNF/TrkB signaling plays an role in mediating antidepressants' therapeutic effects. A forced swim test is broadly used for screening of potential antidepressant drugs and is widely used to measure antidepressant activity. To explore whether imidazole flavanoid and compound i have any antidepressant effect like BDNF, a forced swim test was conducted after chronic treatment of the mice for 21 days via oral administration.

[2] = target: T1, TrkB (Mus musculus, UniProt P15209); assay: TrkB activation in brain of chronically treated mice (immunoblotting p-TrkB 817, immunohistochemistry p-TrkB Y816); format: in vivo; conditions: for TrkB activation in mouse brain after chronic treatment: 5 mg/kg oral 21 days, brain lysates, immunoblotting p-TrkB 817; for TrkB activation in the dentate gyrus: 5 mg/kg oral, after 21 days treatment, immunohistochemistry
T1 construct: from tissue; host or cells: brain of wild-type C57BL/6J mice
T1 sequence (P15209 32-821): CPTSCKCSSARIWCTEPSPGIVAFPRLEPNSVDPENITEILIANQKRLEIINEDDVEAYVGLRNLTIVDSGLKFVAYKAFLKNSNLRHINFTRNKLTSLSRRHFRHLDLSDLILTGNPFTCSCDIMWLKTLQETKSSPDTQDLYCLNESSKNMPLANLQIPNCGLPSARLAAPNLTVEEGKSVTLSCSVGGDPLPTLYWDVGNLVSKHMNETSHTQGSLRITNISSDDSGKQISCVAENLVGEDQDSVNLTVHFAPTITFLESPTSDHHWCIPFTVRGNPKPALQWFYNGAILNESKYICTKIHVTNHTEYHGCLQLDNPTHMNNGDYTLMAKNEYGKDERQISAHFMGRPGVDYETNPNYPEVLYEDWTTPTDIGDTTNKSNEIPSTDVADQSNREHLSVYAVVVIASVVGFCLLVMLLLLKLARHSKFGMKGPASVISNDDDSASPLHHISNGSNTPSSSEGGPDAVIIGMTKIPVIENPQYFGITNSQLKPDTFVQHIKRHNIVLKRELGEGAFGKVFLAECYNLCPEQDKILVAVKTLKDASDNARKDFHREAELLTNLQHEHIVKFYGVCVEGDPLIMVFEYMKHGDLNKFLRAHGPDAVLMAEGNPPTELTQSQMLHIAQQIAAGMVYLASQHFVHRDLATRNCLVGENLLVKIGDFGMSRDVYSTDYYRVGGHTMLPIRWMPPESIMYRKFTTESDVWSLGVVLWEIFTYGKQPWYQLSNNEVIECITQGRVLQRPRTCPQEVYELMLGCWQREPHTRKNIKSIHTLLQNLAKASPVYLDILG
Method: Paraffin section were deparaffinized in xylene and rehydrated gradient ethanol solution. Samples were boiled in 10 mM sodium citrate buffer for 20 min for antigen retrieval purpose. Brain sections were incubated with anti-TrkB (BD biosciences, San Jose, Calif.) 1:50, and anti-p-TrkB Y816 was used at 1:300 dilution. Secondary antibody were applied using antirabbit-Alexa 594 (red), antimouse-FITC (green). DAPI (blue) was used for nuclear staining.
The brain lysates from above chronically treated mice were analyzed by immunoblotting with anti-p-TrkA 794 and p-TrkB 817.
Brain tissues were fixed in 4% paraformaldehyde overnight followed by paraffin embedding. Sections of […] were cut. For immunohistochemical staining, brain sections were deparaffinized in xylene and rehydrated in graded alcohols. Endogenous peroxidase activity was blocked by 3% hydrogen peroxide for 5 minutes and all slides were boiled in 10 mM sodium citrate buffer (pH 6.0) for 10 minutes. Phosphorylated Trk B816 and Trk B were detected using specific antibodies. Paraffin section were deparaffinized in xylene and rehydrated gradient ethanol solution. Samples were boiled in 10 mM sodium citrate buffer for 20 min for antigen retrieval purpose. Brain sections were incubated with anti-TrkB (BD biosciences, San Jose, Calif.) 1:50, p-TrkB 1:300 dilution. Secondary antibodies were applied using anti-rabbit-Alexa 594 (red), anti-mouse-FITC (green). DAPI (blue) was used for nuclear staining
Administration of chronic, but not acute, monoamine antidepressant drugs enhances adult neurogenesis in dentate gyrus of rodents and non-human primates, while blocking neurogenesis by irradiation attenuates the behavioral antidepressant-like effects of these drugs in some rodent strains. […] Ablation of TrkB specifically in hippocampal neural progenitor cells prevents chronic antidepressant-induced neurogenesis and renders the mice behaviorally non-responsive to chronic antidepressant treatment. To test whether increasing TrkB activation by these small agonists would elevate the neurogenesis, adult male C57BL/6J mice were orally injected with either vehicle, 7,8-DHF, or 4′-DMA-7,8-DHF (5 mg/kg) for 21 days. At the end of treatment (day 21), animals were injected with BrdU (50 mg/kg, intraperitoneally) to label dividing cells and were sacrificed 2 h later. BrdU immunohistochemistry was used to assess progenitor proliferation (FIG. 4A). […] Therefore, chronic treatment with TrkB agonists promotes neurogenesis in the hippocampus of mice.
as §2, §3

Row | TrkB activation in mouse brain after chronic treatment ([2]; listed as imidazole flavanoid) | TrkB activation in mouse brain after chronic treatment ([2]; listed as imidazole-derivative) | Structure (SMILES) | swimming immobility in forced swim test [1] | TrkB activation in mouse brain after chronic treatment [2] | TrkB activation in the dentate gyrus [2] | swimming immobility in forced swim test ([1]; listed as imidazole flavanoid) | swimming immobility in forced swim test ([1]; listed as imidazole-derivative)
1 |  |  | O=c1cc(-c2ccccc2)oc2c(O)c(O)ccc12 [7,8-DHF, 7,8-dihydroxyflavone, reference compound] | significantly decreased | evidently provoked TrkB | markedly activated |  | 
2 | evidently provoked TrkB | stronger activity than compound i | CN(C)c1ccc(-c2cc(=O)c3ccc4nc[nH]c4c3o2)cc1 [compound m, 8-(4-(dimethylamino)phenyl)chromeno[7,8-d]imidazol-6(1H)-one] |  |  |  | significantly decreased | more robust antidepressant effect than compound i
3 |  |  | CN(C)c1ccc(-c2cc(=O)c3ccc(O)c(O)c3o2)cc1 [4′-DMA-7,8-DHF, 4′-dimethylamino-7,8-dihydroxyflavone] | evidently reduced the immobility | evidently provoked TrkB | markedly activated |  | 
